Patent US7417156B2, “Orally active, antimalarial, anticancer, artemisinin-derived trioxane dimers” (Johns Hopkins University, priority 2002, dated 2008)

Columns and labels:
SK-MEL-28 = assay: NCI 60 cell line panel screen (SRB); format: cell-based, human
U251 = assay: NCI 60 cell line panel screen (SRB); format: cell-based, human
MDA-MB231/ATCC = assay: NCI 60 cell line panel screen (SRB); format: cell-based, human
SNB-75 = assay: NCI 60 cell line panel screen (SRB); format: cell-based, human
OVCAR-8 = assay: NCI 60 cell line panel screen (SRB); format: cell-based, human
A549/ATCC = assay: NCI 60 cell line panel screen (SRB); format: cell-based, human
BT-549 = assay: NCI 60 cell line panel screen (SRB); format: cell-based, human
HOP-92 = assay: NCI 60 cell line panel screen (SRB); format: cell-based, human
IGROVI = assay: NCI 60 cell line panel screen (SRB); format: cell-based, human
60 cell line panel = format: cell-based
K-562 = assay: NCI 60 cell line panel screen (SRB); format: cell-based, human
OVCAR-3 = assay: NCI 60 cell line panel screen (SRB); format: cell-based, human
SK-OV-3 = assay: NCI 60 cell line panel screen (SRB); format: cell-based, human
MALME-3M = assay: NCI 60 cell line panel screen (SRB); format: cell-based, human; settings: MALME-3M (Melanoma)
HCT-116 = assay: NCI 60 cell line panel screen (SRB); format: cell-based, human
NCI/ADR-RES = assay: NCI 60 cell line panel screen (SRB); format: cell-based, human
SF-539 = assay: NCI 60 cell line panel screen (SRB); format: cell-based, human
PC-3 = assay: NCI 60 cell line panel screen (SRB); format: cell-based, human
HOP-62 = assay: NCI 60 cell line panel screen (SRB); format: cell-based, human
NCI-H23 = assay: NCI 60 cell line panel screen (SRB); format: cell-based, human
TK-10 = assay: NCI 60 cell line panel screen (SRB); format: cell-based, human
NCI-H322M = format: cell-based
HT29 = assay: NCI 60 cell line panel screen (SRB); format: cell-based, human
T-47D = assay: NCI 60 cell line panel screen (SRB); format: cell-based, human
M14 = assay: NCI 60 cell line panel screen (SRB); format: cell-based, human
RPMI-8226 = assay: NCI 60 cell line panel screen (SRB); format: cell-based, human; settings: RPMI-8226 (Leukemia)
MDA-MB-435 = assay: NCI 60 cell line panel screen (SRB); format: cell-based, human; settings: MDA-MB-435 (Breast Cancer)
SF-268 = assay: NCI 60 cell line panel screen (SRB); format: cell-based, human
[1] = mean value over the 60 cell line panel

CC1CCC2C(C)C(CC(O)(CO)CC3OC4OC5(C)CCC6C(C)CCC(C3C)C46OO5)OC3OC4(C)CCC1C32OO4 (stereo not shown) [Compound 5, bis-trioxane vicinal diol]
Log10GI50 (SK-MEL-28; Melanoma, SK-MEL-28): −4.79 | Log10LC50 (SK-MEL-28; SK-MEL-28 (Melanoma), LC50: PG=−50): >−4.00 log10M | Log10TGI50 (SK-MEL-28; SK-MEL-28 (Melanoma), TGI: PG=0): −4.31 log10M | Log10GI50 (U251; CNS Cancer, U251): −7.68 | Log10LC50 (U251; U251 (CNS Cancer), LC50: PG=−50): −4.08 log10M | Log10TGI50 (U251; U251 (CNS Cancer), TGI: PG=0): −4.61 log10M | Log10GI50 (MDA-MB231/ATCC; Breast Cancer, MDA-MB231/ATCC): −4.99 | Log10LC50 (MDA-MB231/ATCC; MDA-MB231/ATCC (Breast Cancer), LC50: PG=−50): −4.15 log10M | Log10TGI50 (MDA-MB231/ATCC; MDA-MB231/ATCC (Breast Cancer), TGI: PG=0): −4.57 log10M | Log10GI50 (SNB-75; CNS Cancer, SNB-75): −4.53 | Log10LC50 (SNB-75; SNB-75 (CNS Cancer), LC50: PG=−50): >−4.00 log10M | Log10TGI50 (SNB-75; SNB-75 (CNS Cancer), TGI: PG=0): −4.04 log10M | Log10LC50 (OVCAR-8; OVCAR-8 (Ovarian Cancer), LC50: PG=−50): >−4.00 log10M | Log10TGI50 (OVCAR-8; OVCAR-8 (Ovarian Cancer), TGI: PG=0): −4.47 log10M | Log10GI50 (OVCAR-8; Ovarian Cancer, OVCAR-8): <−8.00 | Log10LC50 (A549/ATCC; A549/ATCC (Non-Small Cell Lung Cancer), LC50: PG=−50): −4.11 log10M | Log10TGI50 (A549/ATCC; A549/ATCC (Non-Small Cell Lung Cancer), TGI: PG=0): −4.82 log10M | Log10GI50 (A549/ATCC; Non-Small Cell Lung Cancer, A549/ATCC): −7.59 | Log10LC50 (BT-549; BT-549 (Breast Cancer), LC50: PG=−50): −4.30 log10M | Log10TGI50 (BT-549; BT-549 (Breast Cancer), TGI: PG=0): −4.81 log10M | Log10GI50 (BT-549; Breast Cancer, BT-549): <−8.00 | Log10LC50 (HOP-92; HOP-92 (Non-Small Cell Lung Cancer), LC50: PG=−50): −4.05 log10M | Log10TGI50 (HOP-92; HOP-92 (Non-Small Cell Lung Cancer), TGI: PG=0): −4.49 log10M | Log10GI50 (HOP-92; Non-Small Cell Lung Cancer, HOP-92): −4.93 | Log10LC50 (IGROVI; IGROVI (Ovarian Cancer), LC50: PG=−50): −4.17 log10M | Log10TGI50 (IGROVI; IGROVI (Ovarian Cancer), TGI: PG=0): −4.57 log10M | Log10GI50 (IGROVI; Ovarian Cancer, IGROVI): −4.97 | Log10GI50 Delta (60 cell line panel): 2.03 | Log10GI50 Range (60 cell line panel): 3.47 | Log10LC50 Delta (60 cell line panel; 60 cell line panel): 0.37 | Log10LC50 Range (60 cell line panel; 60 cell line panel): 0.47 | Log10TGI50 Delta (60 cell line panel; 60 cell line panel): 3.50 | Log10TGI50 Range (60 cell line panel; 60 cell line panel): 4.00 | growth inhibition and cytotoxicity in words (60 cell line panel; human cancer cell lines in general): strongly inhibitory but not cytotoxic | growth inhibition in words (60 cell line panel; leukemia cell line RPM 1-8226, melanoma cell line SK-MEL-5, renal cancer cell line ACHN): selectively and strongly inhibitory | Log10GI50 MG MID (60 cell line panel; mean over panel): −5.97 | Log10LC50 MG MID (60 cell line panel; [1]): −4.09 log10M | Log10TGI50 MG MID (60 cell line panel; [1]): −4.50 log10M | Log10LC50 (K-562; K-562 (Leukemia), LC50: PG=−50): >−4.00 log10M | Log10TGI50 (K-562; K-562 (Leukemia), TGI: PG=0): >−4.00 log10M | Log10GI50 (K-562; Leukemia, K-562): <−8.00 | Log10LC50 (OVCAR-3; OVCAR-3 (Ovarian Cancer), LC50: PG=−50): >−4.00 log10M | Log10TGI50 (OVCAR-3; OVCAR-3 (Ovarian Cancer), TGI: PG=0): −4.45 log10M | Log10GI50 (OVCAR-3; Ovarian Cancer, OVCAR-3): −5.09 | Log10GI50 (SK-OV-3; Ovarian Cancer, SK-OV-3): −4.62 | Log10LC50 (SK-OV-3; SK-OV-3 (Ovarian Cancer), LC50: PG=−50): >−4.00 log10M | Log10TGI50 (SK-OV-3; SK-OV-3 (Ovarian Cancer), TGI: PG=0): −4.15 log10M | Log10LC50 (MALME-3M; LC50: PG=−50): −4.11 log10M | Log10TGI50 (MALME-3M; TGI: PG=0): −4.50 log10M | Log10GI50 (HCT-116; Colon Cancer, HCT-116): −4.72 | Log10LC50 (HCT-116; HCT-116 (Colon Cancer), LC50: PG=−50): >−4.00 log10M | Log10TGI50 (HCT-116; HCT-116 (Colon Cancer), TGI: PG=0): >−4.00 log10M | Log10GI50 (NCI/ADR-RES; Breast Cancer, NCI/ADR-RES): −4.75 | Log10LC50 (NCI/ADR-RES; NCI/ADR-RES (Breast Cancer), LC50: PG=−50): >−4.00 log10M | Log10GI50 (SF-539; CNS Cancer, SF-539): −4.86 | Log10LC50 (SF-539; SF-539 (CNS Cancer), LC50: PG=−50): >−4.00 log10M | Log10TGI50 (SF-539; SF-539 (CNS Cancer), TGI: PG=0): −4.41 log10M | Log10LC50 (PC-3; PC-3 (Prostate Cancer), LC50: PG=−50): >−4.00 log10M | Log10TGI50 (PC-3; PC-3 (Prostate Cancer), TGI: PG=0): −4.49 log10M | Log10GI50 (PC-3; Prostate Cancer, PC-3): <−8.00 | Log10LC50 (HOP-62; HOP-62 (Non-Small Cell Lung Cancer), LC50: PG=−50): >−4.00 log10M | Log10TGI50 (HOP-62; HOP-62 (Non-Small Cell Lung Cancer), TGI: PG=0): −4.26 log10M | Log10GI50 (HOP-62; Non-Small Cell Lung Cancer, HOP-62): −4.66 | Log10LC50 (NCI-H23; NCI-H23 (Non-Small Cell Lung Cancer), LC50: PG=−50): >−4.00 log10M | Log10TGI50 (NCI-H23; NCI-H23 (Non-Small Cell Lung Cancer), TGI: PG=0): −4.26 log10M | Log10GI50 (NCI-H23; Non-Small Cell Lung Cancer, NCI-H23): −4.83 | Log10GI50 (TK-10; Renal Cancer, TK-10): −4.91 | Log10LC50 (TK-10; TK-10 (Renal Cancer), LC50: PG=−50): −4.06 log10M | Log10TGI50 (TK-10; TK-10 (Renal Cancer), TGI: PG=0): −4.49 log10M | Log10LC50 (NCI-H322M; NCI-H322M (Non-Small Cell Lung Cancer), LC50: PG=−50): −4.16 log10M | Log10TGI50 (NCI-H322M; NCI-H322M (Non-Small Cell Lung Cancer), TGI: PG=0): −4.44 log10M | Log10GI50 (NCI-H322M; Non-Small Cell Lung Cancer, NCI-H322M): −4.71 | Log10GI50 (HT29; Colon Cancer, HT29): <−8.00 | Log10LC50 (HT29; HT29 (Colon Cancer), LC50: PG=−50): >−4.00 log10M | Log10TGI50 (HT29; HT29 (Colon Cancer), TGI: PG=0): >−4.00 log10M | Log10GI50 (T-47D; Breast Cancer, T-47D): −7.23 | Log10LC50 (T-47D; T-47D (Breast Cancer), LC50: PG=−50): >−4.00 log10M | Log10TGI50 (T-47D; T-47D (Breast Cancer), TGI: PG=0): −4.48 log10M | Log10LC50 (M14; M14 (Melanoma), LC50: PG=−50): >−4.00 log10M | Log10TGI50 (M14; M-14 (Melanoma), TGI: PG=0): >−4.00 log10M | Log10GI50 (M14; Melanoma, M14): −4.59 | Log10LC50 (RPMI-8226; LC50: PG=−50): >−4.00 log10M | Log10TGI50 (RPMI-8226; TGI: PG=0): >−4.00 log10M | Log10LC50 (MDA-MB-435; LC50: PG=−50): −4.09 log10M | Log10TGI50 (MDA-MB-435; TGI: PG=0): −4.54 log10M | Log10GI50 (SF-268; CNS Cancer, SF-268): −4.94 | Log10LC50 (SF-268; SF-268 (CNS Cancer), LC50: PG=−50): −4.12 log10M | Log10TGI50 (SF-268; SF-268 (CNS Cancer), TGI: PG=0): −4.53 log10M
